The test system of data set [1] is Streptococcus herbarum, Streptococcus haemolyticus, Staphylococcus aureus, Enterococcus faecalis, Staphylococcus epidermidis, Listeria monocytogenes, and ATCC …. The data set can be described thus: Antibacterial activity in vitro comparison assay, agar dilution method (NCCLS). To be noted: for MIC50 / MIC90: agar dilution, panel of test strains. In kind it is cell-based. On the procedure: The primary antibacterial activity in vitro comparison assay between compound (I) (named CES hereafter) and clarithromycin are performed by No. 1 Hospital of Zhejiang Medical University. The agar dilution method, according to the method recognized by NCCLS (“National clinical analysis criterion protocol” (2nd edition), Ye Yingwu and Wang Yusan ed., p562, Southeast University Press), is taken in the following pharmaceutical sensitivity tests against Streptococcus herbarum, Streptococcus haemolyticus, Staphylococcus aureus, Enterococcus faecalis, Staphylococcus epidermidis, Listeria monocytogenes, and ATCC 25923.
On the technique in general: In agar dilution, organisms are placed on agar that contains the substance at set levels.

The subject of the next data set is mice and rat. Conditions: orally administrated to mice and rat; cited from earlier work.
Data set [2] in a line: pH value of aqueous mixture (Chinese Pharmacopoeia 2000, Annex VI H). It is filed as physicochemical. To be noted: 0.4 g added into 10 ml water. On the procedure: The pH value of compound (I) of present invention is 5-7 as pH value analyzer (Model PHS-3C, Shanghai leici equipment factory) determined according to the method described in ANNEX VIH (on the measurement of pH value) to Chinese Pharmacopoeia (2000 edition), wherein compound (I) of present invention 0.4 g is added into 10 ml water and stirring extensively.

In a further data set the test system is mice. Nature of the data set: Maximal tolerance test. It is filed as in vivo. On the procedure:
Acute toxicity animal trial to compound (I) of the present invention is carried out by using 20 KM mice (10 males) weighted 18-22 g. […] Subsequently, the maximal tolerance dose to mice is greater than 8 g/kg as maximal tolerance test determined. […] The mice restored gradually 3 days after administration of compound (I).

The nature of data set [3]: Acute toxicity animal trial, oral administration. In kind it is in vivo. To be noted: both sexes, mouse, in vivo, po; orally administrated to KM mice.
For a further data set, the system named is KM mice. The data set can be described thus: Acute toxicity animal trial, oral administration. In kind it is in vivo. Conditions: mice after administration.
Data set [4] in a line: Solubility (physical & chemical property). It is filed as physicochemical.

Converted amounts (≈) assume the structure as drawn. Counter-ions that a name gives are not always drawn.

As for `CC[C@H]1OC(=O)[C@H](C)[C@@H](O[C@H]2C[C@@](C)(OC)[C@@H](O)[C@H](C)O2)[C@H](C)[C@@H](O[C@@H]2O[C@H](C)C[C@H](N(C)C)[C@H]2O)[C@](C)(OC)C[C@@H](C)C(=O)[C@H](C)[C@@H](O)[C@]1(C)O` [clarithromycin], in data set [1], the MIC50 worked out at 0.25 µg/mL (≈ 0.334 µM) and the MIC90 result is given as “≧128 μg/ml”. In addition, in the data set on mice and rat, the LD50 is reported as 2.7 to 3.5 g/kg.
In the case of `CCC(=O)OC1C(O[C@@H]2C(C)[C@H](OC3CC(C)(OC)C(O)C(C)O3)[C@@H](C)C(=O)O[C@H](CC)[C@@](C)(O)[C@H](O)C(C)C(=O)[C@H](C)C[C@@]2(C)OC)OC(C)CC1N(C)C` (some centres unmarked) [compound (I), 2′-propionate clarithromycin dodecyl sulfate], in data set [1], the MIC50 is 0.25 µg/mL and the MIC90 entry was “≧128 μg/ml”. Besides, the “antibacterial activity relative to clarithromycin” value in data set [1] (in vitro comparison) was “comparable to that of clarithromycin”. In data set [2], the pH value was 5-7. Also, the maximal tolerance dose entry in the data set on mice was “greater than 8 g/kg”. In data set [3], this compound yielded an LD50 of more than 7500 mg/kg. Moreover, in the data set on KM mice, the death result is listed as “no death was observed”; the signs after administration result is “furriery flab, drowsiness, spiritless and reduced movement”; the “time to gradual restoration” value was determined as 3 days. In data set [4], the “solubility in acetone, ethanol, methanol and chloroform” value is “freely soluble”; the solubility in water result is “almost insoluble”.

For orientation: MIC50 means an inhibitory concentration at the 50% level, which refers to growth in some studies and to a panel of isolates in others. By LD50 is commonly meant the dose at which mortality reaches 50%.

The values above are taken from US20020037864A1, “2'-Propionate clarithromycin dodecyl sulfate and its preparation and pharmaceutical composition containing the same” (priority 2000, published 2002).
